Source: PubChem BioAssay (NCI)
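Results reflect a 48-hour exposure of cells in 96-well plates to compound at five concentrations. The concentration for full growth arrest is given as TGI.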

Assays:
Test in all cases: NCI anticancer screen, dose series, 48 h
HCT-116 colon = test system: HCT-116 colon
K-562 leukemia = test system: K-562 leukemia
SNB-78 CNS = test system: SNB-78 CNS
UACC-257 melanoma = test system: UACC-257 melanoma
OVCAR-8 ovarian = test system: OVCAR-8 ovarian
UACC-62 melanoma = test system: UACC-62 melanoma
OVCAR-5 ovarian = test system: OVCAR-5 ovarian
SK-OV-3 ovarian = test system: SK-OV-3 ovarian
SK-MEL-28 melanoma = test system: SK-MEL-28 melanoma
OVCAR-4 ovarian = test system: OVCAR-4 ovarian
RPMI-8226 leukemia = test system: RPMI-8226 leukemia
SR leukemia = test system: SR leukemia
UO-31 renal = test system: UO-31 renal
KM20L2 colon = test system: KM20L2 colon
DMS 114 small cell lung = test system: DMS 114 small cell lung
HOP-92 NSCLC = test system: HOP-92 NSCLC
NCI-H460 lung = test system: NCI-H460 lung
SK-MEL-5 melanoma = test system: SK-MEL-5 melanoma
786-0 renal = test system: 786-0 renal
HT29 colon = test system: HT29 colon
A549 NSCLC = test system: A549 NSCLC
SF-295 CNS = test system: SF-295 CNS
LOX IMVI melanoma = test system: LOX IMVI melanoma
HCC-2998 colon = test system: HCC-2998 colon
SNB-19 CNS = test system: SNB-19 CNS
KM12 colon = test system: KM12 colon
SN12C renal = test system: SN12C renal
NCI-H522 lung = test system: NCI-H522 lung
RXF 393 renal = test system: RXF 393 renal
CCRF-CEM leukemia = test system: CCRF-CEM leukemia
SW-620 colon = test system: SW-620 colon
TK-10 renal = test system: TK-10 renal
ACHN renal = test system: ACHN renal
M19-MEL melanoma = test system: M19-MEL melanoma
NCI-H23 lung = test system: NCI-H23 lung
EKVX NSCLC = test system: EKVX NSCLC
SNB-75 CNS = test system: SNB-75 CNS
U251 CNS = test system: U251 CNS
DLD-1 colon = test system: DLD-1 colon
OVCAR-3 ovarian = test system: OVCAR-3 ovarian
HL-60(TB) leukemia = test system: HL-60(TB) leukemia
SF-268 CNS = test system: SF-268 CNS
A498 renal = test system: A498 renal
LXFL 529 NSCLC = test system: LXFL 529 NSCLC
COLO 205 colon = test system: COLO 205 colon
DMS 273 small cell lung = test system: DMS 273 small cell lung
M14 melanoma = test system: M14 melanoma
IGROV1 ovarian = test system: IGROV1 ovarian
SF-539 CNS = test system: SF-539 CNS
MOLT-4 leukemia = test system: MOLT-4 leukemia
HCT-15 colon = test system: HCT-15 colon
SK-MEL-2 melanoma = test system: SK-MEL-2 melanoma
HOP-62 NSCLC = test system: HOP-62 NSCLC
CAKI-1 renal = test system: CAKI-1 renal
MALME-3M melanoma = test system: MALME-3M melanoma
NCI-H226 lung = test system: NCI-H226 lung

Measured: TGI

O=c1[nH]c(=O)n(C2OC(CO)C(N(O)Cc3ccc(F)cc3)C2O)cc1Br (stereo not drawn)
not listed: HCT-15 colon | SK-MEL-2 melanoma | HOP-62 NSCLC | CAKI-1 renal | MALME-3M melanoma | NCI-H226 lung
> 100 µM: all other assays above

O=C1NC(=O)C(C(=O)C(=O)Nc2cccc(C(F)(F)F)c2)C(=O)N1
not listed: SR leukemia | HOP-92 NSCLC | HT29 colon | SF-295 CNS | SN12C renal | DMS 273 small cell lung | NCI-H226 lung
> 100 µM: all other assays above

COc1c(Br)cc(Br)c(OC)c1-c1ccc[nH]1
not listed: SR leukemia | KM20L2 colon | HCC-2998 colon | SNB-19 CNS | SN12C renal | RXF 393 renal | MALME-3M melanoma
> 100 µM: all other assays above
